Molecules are shown by their SMILES.

A short description of data set [1]: Pharmacokinetics following intravenous (IV) dosing. The data set is classed as in vivo, Sprague-Dawley rats. Also noted: Cmax: unit: ng/mL. Particulars: hydroxycodone series, 1 mg/kg IV, Mean ± SD. From the text: (§1) There were 3 rats/group. All animals were food fasted overnight. […] The predose sample was collected from the JVC.
(§2) Following the last collection point, the animals were euthanized.

Data set [2] in a line: Pharmacokinetics following oral (PO) dosing. It counts as in vivo, Sprague-Dawley rats. Also noted: Cmax: unit: ng/mL. Conditions: hydroxycodone series, 5.0 mg/kg oral.
Excerpt: as §1, §2

A further data set relates to CD-1 male mice. Kind of data set: Phenylquinone writhing analgesic assay. The data set is classed as in vivo. Conditions: Mus musculus; mPEGn-O-HydroxyCodone series. The protocol: The assay utilized CD-1 male mice (5-8 mice per group), each mouse being approximately 0.020-0.030 kg on the study day. Mice were treated according to standard protocols. Mice were given a single “pretreatment” dose of a compound lacking covalent attachment of a water-soluble, non-peptidic oligomer (i.e., non-PEG oligomer-modified parent molecule), a corresponding version comprising the compound covalently attached to a water-soluble, non-peptidic oligomer (i.e., the conjugate), or control solution (IV, SC, IP or orally) thirty minutes prior to the administration of the phenylquinone (PQ) solution. Each animal was given an IP injection of an irritant (phenylquinone, PQ) that induces “writhing” which may include: contractions of the abdomen, twisting and turning of the trunk, arching of the back, and the extension of the hindlimbs. Each animal was given an IP injection of PQ (1 mg/kg PQ, 0.1 mL/10 g bodyweight). After the injection, the animals were returned to their observation enclosure and their behavior was observed. Contractions were counted between 35 and 45 minutes after the ‘pretreatment”. The animals were used once. Each tested article was dosed at a range between 0.1 and 100 mg/kg (n=5-10 animals/dose).

A further data set concerns mice. Put plainly: Oral dose giving maximal analgesia. It counts as in vivo.
The test system of the next data set is squirrel monkeys. Kind of data set: Monkey self-administration model of addictive potential. From the text:
Dose-related effects of the test articles were examined, using two or more doses of each drug in 3-4 subjects in a double alternation schedule in which each unit dose (or vehicle) was used in two consecutive sessions before a change in unit dose.
Addictive potential of opioid compounds and opioid conjugates of the invention may be assessed through the use of squirrel monkey models as known in the art.
Under the double alternation schedule, each unit dose (or vehicle) was available for intravenous self-administration for two consecutive sessions before the unit dose was changed. In this way, it was possible to establish the function relating unit dose of intravenous drug to (i) number of injections per session, and/or (ii) the percentage of total responses that occur on the lever leading to self-administration (injection-lever responding, % ILR). Unit doses of drugs ranged from 0.01 to 3.2 mg/kg/injection.

The conditions of data set [3]: 25 mg/kg intravenously, an hour following injection.
Description: An hour following injection, the animals were sacrificed and plasma and the brain were collected and frozen immediately. Following tissue and plasma extractions, concentrations of the compounds in brain and plasma were measured using LC-MS/MS. The brain:plasma ratio was calculated as the ratio of measured concentrations in the brain and plasma.

Take `COc1ccc2c3c1O[C@H]1C(=O)CC[C@@]4(O)[C@@H](C2)N(C)CC[C@]314` [Oxycodone, oxycodone, reference compound]: in data set [1], the AUCall came out at 12800 ± 1090 ng·min/mL, the AUCinf was 13000 ± 1070 ng·min/mL, the CL turned out to be 77.1 ± 6.26 mL/min/kg and the highest concentration (Cmax) was 495 ± 56.0 ng/mL. Further, in data set [1], the MRTlast amounted to 37.0 ± 1.28 min and the “T1/2(z)” value came out at 47.0 ± 3.99 min. In data set [2] (Mean ± SD), this compound showed an AUCall of 4520 ± 1660 ng·min/mL, a Cmax of 25.5 ± 1.86 ng/mL and an MRTlast of 179 ± 17.4 min. Moreover, in data set [2] (median value), the Tmax is on record as 15.0 min. The compound further showed an ED50 in the data set on CD-1 male mice of 0.619 mg/kg. Also, the “oral dose at which maximal analgesia was obtained” value in the data set on mice came to 14 mg/kg. Also, in the data set with squirrel monkeys (0.01 mg/kg/injection), the “subjects showing addictive behavior” value is 25%. In the data set on squirrel monkeys (0.03 mg/kg/injection), the “injection lever responses (% ILR)” value was 100% and the “subjects showing addictive behavior” value is on record as 100%. Also, in the data set on squirrel monkeys (0.1 mg/kg/injection), the “injection lever responses (% ILR)” value is listed as 100%.
With `COCCOCCOCCO[C@H]1CC[C@@]2(O)[C@H]3Cc4ccc(O)c5c4[C@@]2(CCN3CC2CCC2)[C@H]1O5` [6-O-mPEG3-Nalbuphine], the “Brain:Plasma Ratios” value in data set [3] is given as 0.23.
